# Source: ChEMBL document CHEMBL3784929, “Pharmacokinetics of valproic acid in volunteers after a single dose study” (Biopharm Drug Dispos, 1985)
# Key:
# Assay type in all cases: ADME, organism-based
# [1] = Fraction unbound in healthy human (6 volunteers) serum at 1 g, po administered as single dose measured after 0.33 hrs
# [2] = Fraction unbound in healthy human (6 volunteers) serum at 1 g, po administered as single dose measured after 4 hrs
# [3] = Fraction unbound in healthy human (6 volunteers) serum at 1 g, po administered as single dose measured after 5 hrs
# [4] = Total serum concentration in healthy human (6 volunteers) at 1 g, po administered as single dose measured after 48 hrs by gas liquid chromatography; settings: read-out: Drug uptake
# Serum [5] = test: Unbound serum concentration in healthy human (6 volunteers) at 1 g, po administered as single dose measured after 10 hrs by enzyme multiple immunotechnique; settings: in vivo
# Serum [6] = test: Unbound serum concentration in healthy human (6 volunteers) at 1 g, po administered as single dose measured after 4 hrs by enzyme multiple immunotechnique; settings: in vivo
# [7] = Total serum concentration in healthy human (6 volunteers) at 1 g, po administered as single dose measured after 10 hrs by gas liquid chromatography; settings: read-out: Drug uptake
# [8] = Total serum concentration in healthy human (6 volunteers) at 1 g, po administered as single dose measured after 1.5 hrs by gas liquid chromatography; settings: read-out: Drug uptake
# [9] = Fraction unbound in healthy human (6 volunteers) serum at 1 g, po administered as single dose measured after 1 hr
# Serum [10] = test: Unbound serum concentration in healthy human (6 volunteers) at 1 g, po administered as single dose measured after 1 hr by enzyme multiple immunotechnique; settings: in vivo
# Serum [11] = test: Unbound serum concentration in healthy human (6 volunteers) at 1 g, po administered as single dose measured after 39 hrs by enzyme multiple immunotechnique; settings: in vivo
# [12] = Total serum concentration in healthy human (6 volunteers) at 1 g, po administered as single dose measured after 5 hrs by gas liquid chromatography; settings: read-out: Drug uptake
# Serum [13] = test: Unbound serum concentration in healthy human (6 volunteers) at 1 g, po administered as single dose measured after 0.66 hrs by enzyme multiple immunotechnique; settings: in vivo
# [14] = Total serum concentration in healthy human (6 volunteers) at 1 g, po administered as single dose measured after 30 hrs by gas liquid chromatography; settings: read-out: Drug uptake
# [15] = Terminal half life in healthy human (6 volunteers) at 1 g, po administered as single dose by gas liquid chromatography; settings: in vivo, read-out: beta t1/2 (converted)
# [16] = Total AUC in healthy human (6 volunteers) at 1 g, po administered as single dose by gas liquid chromatography; set-up: dose 1 g, time AUCmax, route oral; settings: in vivo
# [17] = Fraction unbound in healthy human (6 volunteers) serum at 1 g, po administered as single dose measured after 6 hrs
# [18] = Total serum concentration in healthy human (6 volunteers) at 1 g, po administered as single dose measured after 1 hr by gas liquid chromatography; settings: read-out: Drug uptake
# [19] = Tmax in healthy human (6 volunteers) at 1 g, po administered as single dose by gas liquid chromatography; settings: in vivo
# [20] = Fraction unbound in healthy human (6 volunteers) serum at 1 g, po administered as single dose measured after 8 hrs
# [21] = Total serum concentration in healthy human (6 volunteers) at 1 g, po administered as single dose measured after 6 hrs by gas liquid chromatography; settings: read-out: Drug uptake
# [22] = Fraction unbound in healthy human (6 volunteers) serum assessed as ratio of fAUC to total AUC at 1 g, po administered as single dose by gas liquid chromatography
# [23] = Total serum concentration in healthy human (6 volunteers) at 1 g, po administered as single dose measured after 3 hrs by gas liquid chromatography; settings: read-out: Drug uptake
# [24] = Fraction unbound in healthy human (6 volunteers) serum at 1 g, po administered as single dose measured after 14 hrs
# [25] = Fraction unbound in healthy human (6 volunteers) serum at 1 g, po administered as single dose measured after 1.5 hrs
# Serum [26] = test: Unbound serum concentration in healthy human (6 volunteers) at 1 g, po administered as single dose measured after 0.33 hrs by enzyme multiple immunotechnique; settings: in vivo
# Serum [27] = test: Unbound serum concentration in healthy human (6 volunteers) at 1 g, po administered as single dose measured after 6 hrs by enzyme multiple immunotechnique; settings: in vivo
# [28] = Total serum concentration in healthy human (6 volunteers) at 1 g, po administered as single dose measured after 24 hrs by gas liquid chromatography; settings: read-out: Drug uptake
# Homo sapiens = test: fAUC in healthy human (6 volunteers) at 1 g, po administered as single dose by gas liquid chromatography; settings: in vivo
# [29] = Total serum concentration in healthy human (6 volunteers) at 1 g, po administered as single dose measured after 2 hrs by gas liquid chromatography; settings: read-out: Drug uptake
# [30] = Total serum concentration in healthy human (6 volunteers) at 1 g, po administered as single dose measured after 4 hrs by gas liquid chromatography; settings: read-out: Drug uptake
# [31] = Cmax in healthy human (6 volunteers) at 1 g, po administered as single dose by gas liquid chromatography; set-up: dose 1 g, route oral; settings: in vivo
# Serum [32] = test: Unbound serum concentration in healthy human (6 volunteers) at 1 g, po administered as single dose measured after 14 hrs by enzyme multiple immunotechnique; settings: in vivo
# [33] = Drug metabolism in healthy human (6 volunteers) assessed as excretion of valproic acid glucuronide in urine at 1 g, po administered as single dose measured upto 48 hrs by gas liquid chromatography; settings: in vivo
# Serum [34] = test: Unbound serum concentration in healthy human (6 volunteers) at 1 g, po administered as single dose measured after 2 hrs by enzyme multiple immunotechnique; settings: in vivo
# Serum [35] = test: Unbound serum concentration in healthy human (6 volunteers) at 1 g, po administered as single dose measured after 12 hrs by enzyme multiple immunotechnique; settings: in vivo
# Serum [36] = test: Unbound serum concentration in healthy human (6 volunteers) at 1 g, po administered as single dose measured after 24 hrs by enzyme multiple immunotechnique; settings: in vivo
# [37] = Fraction unbound in healthy human (6 volunteers) serum at 1 g, po administered as single dose measured after 3 hrs
# [38] = Fraction unbound in healthy human (6 volunteers) serum at 1 g, po administered as single dose
# Serum [39] = test: Unbound serum concentration in healthy human (6 volunteers) at 1 g, po administered as single dose measured after 3 hrs by enzyme multiple immunotechnique; settings: in vivo
# [40] = Fraction unbound in healthy human (6 volunteers) serum at 1 g, po administered as single dose measured after 0.66 hrs
# [41] = Fraction unbound in healthy human (6 volunteers) serum at 1 g, po administered as single dose measured after 10 hrs
# [42] = Total serum concentration in healthy human (6 volunteers) at 1 g, po administered as single dose measured after 12 hrs by gas liquid chromatography; settings: read-out: Drug uptake
# [43] = Total serum concentration in healthy human (6 volunteers) at 1 g, po administered as single dose measured after 0.33 hrs by gas liquid chromatography; settings: read-out: Drug uptake
# [44] = Fraction unbound in healthy human (6 volunteers) serum at 1 g, po administered as single dose measured after 12 hrs
# Serum [45] = test: Unbound serum concentration in healthy human (6 volunteers) at 1 g, po administered as single dose measured after 48 hrs by enzyme multiple immunotechnique; settings: in vivo
# [46] = Total serum concentration in healthy human (6 volunteers) at 1 g, po administered as single dose measured after 8 hrs by gas liquid chromatography; settings: read-out: Drug uptake
# Serum [47] = test: Unbound serum concentration in healthy human (6 volunteers) at 1 g, po administered as single dose measured after 1.5 hrs by enzyme multiple immunotechnique; settings: in vivo
# [48] = Total serum concentration in healthy human (6 volunteers) at 1 g, po administered as single dose measured after 39 hrs by gas liquid chromatography; settings: read-out: Drug uptake
# Serum [49] = test: Unbound serum concentration in healthy human (6 volunteers) at 1 g, po administered as single dose measured after 5 hrs by enzyme multiple immunotechnique; settings: in vivo
# Serum [50] = test: Unbound serum concentration in healthy human (6 volunteers) at 1 g, po administered as single dose measured after 30 hrs by enzyme multiple immunotechnique; settings: in vivo
# [51] = Fraction unbound in healthy human (6 volunteers) serum at 1 g, po administered as single dose measured after 2 hrs
# [52] = Total serum concentration in healthy human (6 volunteers) at 1 g, po administered as single dose measured after 0.66 hrs by gas liquid chromatography; settings: read-out: Drug uptake
# Serum [53] = test: Unbound serum concentration in healthy human (6 volunteers) at 1 g, po administered as single dose measured after 8 hrs by enzyme multiple immunotechnique; settings: in vivo
# [54] = Total serum concentration in healthy human (6 volunteers) at 1 g, po administered as single dose measured after 14 hrs by gas liquid chromatography; settings: read-out: Drug uptake
smiles,measurement,setting,value
CCCC(CCC)C(=O)[O-].[Na+] [VALPROATE SODIUM],fraction unbound at 0.33 h,[1],0.04
same,fraction unbound at 4 h,[2],0.049
same,fraction unbound at 5 h,[3],0.04
same,concentration at 48 h,[4],10.6 µg/mL
same,Drug uptake(free),Serum [5],2.7 µg/mL
same,Drug uptake(free),Serum [6],4.6 µg/mL
same,concentration at 10 h,[7],61.4 µg/mL
same,concentration at 1.5 h,[8],103 µg/mL
same,fraction unbound at 1 h,[9],0.051
same,Drug uptake(free),Serum [10],5.3 µg/mL
same,Drug uptake(free),Serum [11],0 µg/mL
same,concentration at 5 h,[12],88.6 µg/mL
same,Drug uptake(free),Serum [13],4.9 µg/mL
same,concentration at 30 h,[14],23.4 µg/mL
same,half-life,[15],14.9 h
same,AUC,[16],2120 µg·h/mL
same,fraction unbound at 6 h,[17],0.044
same,concentration at 1 h,[18],105 µg/mL
same,Tmax,[19],2 h
same,fraction unbound at 8 h,[20],0.059
same,concentration at 6 h,[21],85.9 µg/mL
same,fraction unbound,[22],0.041
same,concentration at 3 h,[23],96.3 µg/mL
same,fraction unbound at 14 h,[24],0.026
same,fraction unbound at 1.5 h,[25],0.042
same,Drug uptake(free),Serum [26],2.1 µg/mL
same,Drug uptake(free),Serum [27],3.8 µg/mL
same,concentration at 24 h,[28],33.3 µg/mL
same,fAUC,Homo sapiens,84.2 µg·h/mL
same,concentration at 2 h,[29],105 µg/mL
same,concentration at 4 h,[30],92.9 µg/mL
same,Cmax,[31],108 µg/mL
same,Drug uptake(free),Serum [32],1.2 µg/mL
same,Drug metabolism,[33],176.6 mg
same,Drug uptake(free),Serum [34],6.1 µg/mL
same,Drug uptake(free),Serum [35],1.9 µg/mL
same,Drug uptake(free),Serum [36],0 µg/mL
same,fraction unbound at 3 h,[37],0.049
same,fraction unbound,[38],0.049
same,Drug uptake(free),Serum [39],4.7 µg/mL
same,fraction unbound at 0.66 h,[40],0.052
same,fraction unbound at 10 h,[41],0.046
same,concentration at 12 h,[42],54.1 µg/mL
same,concentration at 0.33 h,[43],52.3 µg/mL
same,fraction unbound at 12 h,[44],0.037
same,Drug uptake(free),Serum [45],0 µg/mL
same,concentration at 8 h,[46],66.9 µg/mL
same,Drug uptake(free),Serum [47],4.3 µg/mL
same,concentration at 39 h,[48],15.3 µg/mL
same,Drug uptake(free),Serum [49],3.6 µg/mL
same,Drug uptake(free),Serum [50],0 µg/mL
same,fraction unbound at 2 h,[51],0.058
same,concentration at 0.66 h,[52],95.2 µg/mL
same,Drug uptake(free),Serum [53],3.9 µg/mL
same,concentration at 14 h,[54],47.5 µg/mL
